# Patent publication US20260365641A1, “Aromatic Acetylene Derivative, Preparation Method Therefor, And Use Thereof” (Zhejiang Hisun Pharmaceutical Co., Ltd., priority 2022, published 2026)
# Experiments:
# [1] = biological target: T1, recombinant Pseudomonas aeruginosa LpxC (Pseudomonas aeruginosa, UniProt P47205); assay: Inhibition of enzymatic activity of recombinant Pseudomonas aeruginosa LpxC in vitro; assay type: biochemical; settings: 5 nM LpxC; substrate UDP-3-O—(R-3-hydroxydecanoyl)-GlcNAc; 25 °C, 120 minutes; fluorescamine readout
# T1 construct: purchased Signalway Antibody AP74647-2
# T1 sequence (P47205 1-303): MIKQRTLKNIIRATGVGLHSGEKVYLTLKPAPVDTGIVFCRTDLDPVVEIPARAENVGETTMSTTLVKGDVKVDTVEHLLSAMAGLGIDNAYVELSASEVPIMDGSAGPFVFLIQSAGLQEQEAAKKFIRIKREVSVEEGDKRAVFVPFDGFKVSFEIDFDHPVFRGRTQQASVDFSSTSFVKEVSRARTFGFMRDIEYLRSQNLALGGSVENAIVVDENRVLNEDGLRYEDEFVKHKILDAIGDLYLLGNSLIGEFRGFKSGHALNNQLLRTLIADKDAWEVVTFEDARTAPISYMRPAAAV
# Description: The following method was used to determine degrees of inhibition of the compounds of the present invention on the enzymatic activity of recombinant Pseudomonas aeruginosa LpxC in vitro.
# The test process was briefly described as follows: the tested compound was first dissolved in DMSO to prepare a 10 mM storage solution. The reaction was carried out in a 96-well microplate. Firstly, 20 μL of recombinant Pseudomonas aeruginosa LpxC (purchased from Signalway Antibody, article number AP74647-2) was added into the wells, and the final concentrations were 5 nM respectively. 5 μL of the compound to be tested was added, diluted in 4-fold, with 8 concentration points, and the concentration range was 0.61-10000 nM. 5 μL of LpxC substrate UDP-3-O—(R-3-hydroxydecanoyl)-GlcNAc (purchased from Biosynth Carbosynth, article number mu75071) was added, wherein a final concentration of the substrate was […], and the substrate was incubated at 25 °C for 120 minutes. Subsequently, 20 μL of 2.0 mg/mL fluorescamine (purchased from sigma aldrich, article number F9015, wherein a solvent was dimethylformamide/acetonitrile (1:1)) was added to the reaction system, mixed evenly and reacted for 10 minutes. Finally, 50 μL of 200 mM sodium phosphate buffer solution (pH 8.0) was added to stop the reaction, and a microplate reader (BMG) was used for reading. An excitation wavelength and an emission wavelength were 390 nm and 495 nm respectively. Compared with the fluorescence intensity ratio of a control group (0.1% DMSO), the percentage inhibition rates of the compounds at each concentration were calculated, and the IC50 values of the compounds were obtained by performing nonlinear regression analysis with logarithmic value of the compound concentration-inhibition rate by GraphPad Prism 5 software, which can be seen in Table 1.
# K. pneumoniae ATCC13883 = assay: Antibacterial activity, minimum inhibitory concentration (MIC) in vitro, broth dilution; assay type: cell-based; settings: Klebsiella pneumoniae, 5×10^5 cfu/mL, 35 °C, 18-24 hours
# Description: (§1) The minimum inhibitory concentration (MIC) in vitro was determined according to CLSI's guidelines, and a minimal broth dilution method was used.
# (§2) The test process was briefly described as follows: the tested compound was dissolved in DMSO to prepare a storage solution of […], and then prepared into 11 two-fold-diluted 100× high-concentration working liquids (a final concentration of the system was 64 μg/mL to 0.06 μg/mL) by DMSO. Stains (K. pneumoniae ATCC13883, K. pneumoniae ATCC51504 and E. coli ATCC 25922) frozen at −80 °C with glycerin were inoculated to a solid agar culture medium, placed into an incubator for culturing for 18-24 hours at 35 °C to finish the preparation work of the strains. A proper amount of solid plate culture was collected, re-suspended in normal saline, and uniformly mixed. The turbidity of the bacterial suspension was adjusted to a proper turbidity by a turbidity meter, containing about 1×10^8 cfu/mL of bacteria. Then, the turbidity-regulated bacterial suspension was diluted with a test culture medium (type: CAMHIIB, purchased from BD company) to a bacterial concentration of 5×10^5 cfu/mL, thus finishing the preparation of an inoculation solution. 198 μL of the inoculation solution was inoculated into a 96-well plate, and added with 2 μL 100× high concentration working liquid of the compound, then the 96-well plate was placed at 35 °C for culturing for 18-24 hours.
# E. coli ATCC 25922 = assay: as above; assay type: cell-based; settings: Escherichia coli, ATCC25922, 5×10^5 cfu/mL, 35 °C, 18-24 hours
# Description: as §1, §2
# K. pneumoniae ATCC51504 = assay: as above; assay type: cell-based; settings: Klebsiella pneumoniae, 5×10^5 cfu/mL, 35 °C, 18-24 hours
# Description: as §1, §2
SMILES,IC50 [1],MIC (K. pneumoniae ATCC13883),MIC (E. coli ATCC 25922),MIC (K. pneumoniae ATCC51504)
"C[C@H](O)c1nccn1Cc1cc(-c2ccc(C#CC3CC4(CCN(C(=O)CO)CC4)C3)cc2)on1 [Example 12, (S)-2-hydroxy-1-(2-((4-(3-((2-(1-hydroxyethyl)-1H-imidazol-1-yl)methyl)isoxazol-5-yl)phenyl)ethynyl)-7-azaspiro[3.5]nonan-7-yl)ethan-1-one]",4.06 nM,4 µg/mL,2 µg/mL,–
"C[C@H](O)c1nccn1Cc1cc(-c2ccc(C#CC3CC4(CCN(CC(N)=O)CC4)C3)cc2)on1 [Example 13, (S)-2-(2-((4-(3-((2-(1-hydroxyethyl)-1H-imidazol-1-yl)methyl)isoxazol-5-yl)phenyl)ethynyl)-7-azaspiro[3.5]nonan-7-yl)acetamide]",5 nM,1 µg/mL,1 µg/mL,–
"C[C@H](O)c1nccn1Cc1cc(-c2ccc(C#CC3CC4(CCN(C=O)CC4)C3)cc2)on1 [Example 17, (S)-2-((4-(3-((2-(1-hydroxyethyl)-1H-imidazol-1-yl)methyl)isoxazol-5-yl)phenyl)ethynyl)-7-azaspiro[3.5]nonane-7-carbaldehyde]",8.32 nM,2 µg/mL,1 µg/mL,–
"C[C@H](O)c1nccn1Cc1cc(-c2ccc(C#CC3CC4(CCN(C(N)=O)CC4)C3)cc2)on1 [Example 19, (S)-2-((4-(3-((2-(1-hydroxyethyl)-1H-imidazol-1-yl)methyl)isoxazol-5-yl)phenyl)ethynyl)-7-azaspiro[3.5]nonane-7-carboxamide]",6.05 nM,4 µg/mL,2 µg/mL,–
"C[C@H](O)c1nccn1Cc1cc(-c2ccc(C#CC3CC4(C3)CN(CC(N)=O)C4)cc2)on1 [Example 20, (S)-2-(6-((4-(3-((2-(1-hydroxyethyl)-1H-imidazol-1-yl)methyl)isoxazol-5-yl)phenyl)ethynyl)-2-azaspiro[3.3]heptan-2-yl)acetamide]",6.77 nM,4 µg/mL,2 µg/mL,–
"C[C@H](O)c1nccn1Cc1cc(-c2ccc(C#CC3CC4(C3)CN(C(N)=O)C4)cc2)on1 [Example 21, (S)-6-((4-(3-((2-(1-hydroxyethyl)-1H-imidazol-1-yl)methyl)isoxazol-5-yl)phenyl)ethynyl)-2-azaspiro[3.3]heptane-2-carboxamide]",5.11 nM,4 µg/mL,2 µg/mL,–
"C[C@H](O)c1nccn1Cc1cc(-c2ccc(C#CC3CC4(C3)CN(C=O)C4)cc2)on1 [Example 22, (S)-6-((4-(3-((2-(1-hydroxyethyl)-1H-imidazol-1-yl)methyl)isoxazol-5-yl)phenyl)ethynyl)-2-azaspiro[3.3]heptane-2-carbaldehyde]",6.54 nM,4 µg/mL,1 µg/mL,–
"C[C@H](O)c1nccn1Cc1cc(-c2ccc(C#CC3CC4(CCN(C=O)C4)C3)cc2)on1 (stereo partly drawn) [Example 23, (S)-2-((4-(3-((2-(1-hydroxyethyl)-1H-imidazol-1-yl)methyl)isoxazol-5-yl)phenyl)ethynyl)-6-azaspiro[3.4]octane-6-carbaldehyde]",6.36 nM,4 µg/mL,2 µg/mL,–
"C[C@H](O)c1nccn1Cc1cc(-c2ccc(C#CC3CC4(CCN(Cc5ccn[nH]5)CC4)C3)cc2)on1 [Example 25, (S)-1-(1-((5-(4-((7-((1H-pyrazol-5-yl)methyl)-7-azaspiro[3.5]nonan-2-yl)ethynyl)phenyl)isoxazol-3-yl)methyl)-1H-imidazol-2-yl)ethan-1-ol]",7.28 nM,4 µg/mL,2 µg/mL,–
"C[C@H](O)c1nccn1Cc1cc(-c2ccc(C#CC3CC4(C3)CN(C(=O)CO)C4)cc2)on1 [Example 26, (S)-2-hydroxy-1-(6-((4-(3-((2-(1-hydroxyethyl)-1H-imidazol-1-yl)methyl)isoxazol-5-yl)phenyl)ethynyl)-2-azaspiro[3.3]heptan-2-yl)ethan-1-one]",11.3 nM,2 µg/mL,2 µg/mL,–
"C[C@H](O)c1nccn1Cc1cc(-c2ccc(C#CC3CC4(CCN(Cc5ncc[nH]5)CC4)C3)cc2)on1 [Example 27, (S)-1-(1-((5-(4-((7-((1H-imidazol-2-yl)methyl)-7-azaspiro[3.5]nonan-2-yl)ethynyl)phenyl)isoxazol-3-yl)methyl)-1H-imidazol-2-yl)ethan-1-ol]",6.08 nM,4 µg/mL,2 µg/mL,–
"C[C@H](O)c1nccn1Cc1cc(-c2ccc(C#CC3CC4(CCN(C(=O)CC#N)CC4)C3)cc2)on1 [Example 29, (S)-3-(2-((4-(3-((2-(1-hydroxyethyl)-1H-imidazol-1-yl)methyl)isoxazol-5-yl)phenyl)ethynyl)-7-azaspiro[3.5]nonan-7-yl)-3-oxopropanenitrile]",6.17 nM,4 µg/mL,2 µg/mL,–
"C[C@H](O)c1nccn1Cc1cc(-c2ccc(C#CC3=CCN(C(=O)c4ccncc4)CC3)cc2)on1 [Example 33, (S)-(4-((4-(3-((2-(1-hydroxyethyl)-1H-imidazol-1-yl)methyl)isoxazol-5-yl)phenyl)ethynyl)-3,6-dihydropyridin-1(2H)-yl)(pyridin-4-yl)methanone]",19.7 nM,2 µg/mL,1 µg/mL,–
"C[C@H](O)c1nccn1Cc1cc(-c2ccc(C#CC3=CCN(C(=O)C4CCCCO4)CC3)cc2)on1 (stereo partly drawn) [Example 65, (4-((4-(3-((2-((S)-1-hydroxyethyl)-1H-imidazol-1-yl)methyl)isoxazol-5-yl)phenyl)ethynyl)-3,6-dihydropyridin-1(2H)-yl)(tetrahydro-2H-pyran-2-yl)methanone]",15.1 nM,–,2 µg/mL,0.5 µg/mL
"C[C@H](O)c1nccn1Cc1cc(-c2ccc(C#CC3=CCN(C(=O)C4CCOCC4)CC3)cc2)on1 [Example 66, (S)-(4-((4-(3-((2-(1-hydroxyethyl)-1H-imidazol-1-yl)methyl)isoxazol-5-yl)phenyl)ethynyl)-3,6-dihydropyridin-1(2H)-yl)(tetrahydro-2H-pyran-4-yl)methanone]",18.5 nM,–,2 µg/mL,1 µg/mL
"COCCC(=O)N1CC=C(C#Cc2ccc(-c3cc(Cn4ccnc4[C@H](C)O)no3)cc2)CC1 [Example 67, (S)-1-(4-((4-(3-((2-(1-hydroxyethyl)-1H-imidazol-1-yl)methyl)isoxazol-5-yl)phenyl)ethynyl)-3,6-dihydropyridin-1(2H)-yl)-3-methoxypropan-1-one]",22.9 nM,–,1 µg/mL,0.5 µg/mL
"COCC(=O)N1CC=C(C#Cc2ccc(-c3cc(Cn4ccnc4[C@H](C)O)no3)cc2)CC1 [Example 68, (S)-1-(4-((4-(3-((2-(1-hydroxyethyl)-1H-imidazol-1-yl)methyl)isoxazol-5-yl)phenyl)ethynyl)-3,6-dihydropyridin-1(2H)-yl)-2-methoxyethan-1-one]",21.2 nM,–,1 µg/mL,1 µg/mL
"C[C@H](O)c1nccn1Cc1cc(-c2ccc(C#CC3=CCN(C(=O)C4(O)CC4)CC3)cc2)on1 [Example 69, (S)-(1-hydroxycyclopropyl)(4-((4-(3-((2-(1-hydroxyethyl)-1H-imidazol-1-yl)methyl)isoxazol-5-yl)phenyl)ethynyl)-3,6-dihydropyridin-1(2H)-yl)methanone]",20.8 nM,–,2 µg/mL,2 µg/mL
